Data as given in ChEMBL document CHEMBL3885881, “DrugMatrix”.

Species on record: Rattus norvegicus
Experiment: DrugMatrix - Regimen: Daily Repeat
Assay type: toxicity, organism-based, Sprague-Dawley
Set-up: regimen Daily Repeat, gender Male, age 6-8 weeks
Conditions: in vivo, sc, […], route mini-PUMP - SUBCUTANEOUS, dose level High, vehicle 100 % SALINE; for ABSOLUTE LYMPHOCYTE / ABSOLUTE MONOCYTE / BASOPHIL / EOSINOPHIL / ERYTHROCYTE COUNT / HEMATOCRIT / HEMOGLOBIN / LEUKOCYTE COUNT / MEAN CORPUSCULAR HEMOGLOBIN / MEAN CORPUSCULAR HEMOGLOBIN CONCENTRATION / MEAN CORPUSCULAR VOLUME / MONOCYTE / NEUTROPHIL / PLATELET COUNT / ABSOLUTE BASOPHIL / ABSOLUTE EOSINOPHIL / ABSOLUTE SEGMENTED NEUTROPHIL / NUCLEATED RED BLOOD CELLS: tissue Blood
[1] = 0.5 mg/kg, tissue Plasma, time 14 day
[2] = 72 h, dose 0.72 mg/Kg, time 3 day
[3] = 72 h, tissue Plasma, dose 0.72 mg/Kg, time 3 day
[4] = 120 h, dose 0.72 mg/Kg, time 5 day
[5] = 120 h, tissue Plasma, dose 0.72 mg/Kg, time 5 day
[6] = tissue Plasma, dose 0.72 mg/Kg, time 14 day

## CC[C@H](C)[C@H](NC(=O)[C@H](Cc1ccc(O)cc1)NC(=O)[C@@H](NC(=O)[C@H](CCCNC(=N)N)NC(=O)[C@@H](N)CC(=O)O)C(C)C)C(=O)N[C@@H](Cc1cnc[nH]1)C(=O)N1CCC[C@H]1C(=O)N[C@@H](Cc1ccccc1)C(=O)O [ANGIOTENSIN II]
0.5 mg/kg, time 14 day
  ABSOLUTE LYMPHOCYTE: 9890 cells/µL
  ABSOLUTE MONOCYTE: 390 cells/µL
  BASOPHIL: 0.3%
  EOSINOPHIL: 0.46%
  ERYTHROCYTE COUNT: 7.14 x10E6/uL
  HEMATOCRIT: 45.2%
  HEMOGLOBIN: 14.82 G/DL
  LEUKOCYTE COUNT: 13.29 x10E3/uL
  MEAN CORPUSCULAR HEMOGLOBIN: 20.82 pg
  MEAN CORPUSCULAR HEMOGLOBIN CONCENTRATION: 32.78 G/DL
  MEAN CORPUSCULAR VOLUME: 63.38 fL
  MONOCYTE: 3.02%
  NEUTROPHIL: 20.78%
  PLATELET COUNT: 1204.2 x10E3/uL
[1]
  ALBUMIN: 3.98 G/DL
  ALKALINE PHOSPHATASE: 370.2 u/L
  ASPARTATE AMINOTRANSFERASE: 94.8 u/L
  BLOOD UREA NITROGEN: 19 mg/dL
  CARBON DIOXIDE: 41 mmol/L
  CHOLESTEROL: 66.8 mg/dL
  CREATINE PHOSPHOKINASE: 324.4 u/L
  CREATININE: 0.74 mg/dL
  GLUCOSE: 138.2 mg/dL
  LACTATE DEHYDROGENASE: 202.4 u/L
  PHOSPHORUS: 9.74 mg/dL
  POTASSIUM: 5.88 MEQ/L
  SODIUM: 149.8 MEQ/L
  TOTAL BILIRUBIN: 0.44 mg/dL
  URIC ACID: 0.7 mg/dL
[2]
  ABSOLUTE BASOPHIL: 0 CELLS/uL
  ABSOLUTE EOSINOPHIL: 0 CELLS/uL
  ABSOLUTE LYMPHOCYTE: 11891.33 CELLS/uL
  ABSOLUTE MONOCYTE: 399.33 CELLS/uL
  ABSOLUTE SEGMENTED NEUTROPHIL: 1676 CELLS/uL
  BASOPHIL: 0%
  EOSINOPHIL: 0%
  ERYTHROCYTE COUNT: 6.49 x10E6/uL
  HEMATOCRIT: 38.87%
  HEMOGLOBIN: 14.23 G/DL
  LEUKOCYTE COUNT: 13.97 x10E3/uL
  MEAN CORPUSCULAR HEMOGLOBIN: 21.93 pg
  MEAN CORPUSCULAR HEMOGLOBIN CONCENTRATION: 36.63 G/DL
  MEAN CORPUSCULAR VOLUME: 59.9 fL
  MONOCYTE: 2.67%
  NEUTROPHIL: 12%
  NUCLEATED RED BLOOD CELLS: 0 /100WBC
  PLATELET COUNT: 1285 x10E3/uL
[3]
  ALBUMIN: 4.4 G/DL
  ALKALINE PHOSPHATASE: 340 u/L
  ASPARTATE AMINOTRANSFERASE: 83.67 u/L
  BLOOD UREA NITROGEN: 25.67 mg/dL
  CARBON DIOXIDE: 28.67 mmol/L
  CHOLESTEROL: 90.33 mg/dL
  CREATININE: 0.22 mg/dL
  GLUCOSE: 151.33 mg/dL
  LACTATE DEHYDROGENASE: 469.67 u/L
  PHOSPHORUS: 10.63 mg/dL
  POTASSIUM: 5.96 MEQ/L
  SODIUM: 143.73 MEQ/L
  TOTAL BILIRUBIN: 0.2 mg/dL
  URIC ACID: 2 mg/dL
[4]
  ABSOLUTE BASOPHIL: 0 CELLS/uL
  ABSOLUTE EOSINOPHIL: 202.67 CELLS/uL
  ABSOLUTE LYMPHOCYTE: 15280.67 CELLS/uL
  ABSOLUTE MONOCYTE: 168.67 CELLS/uL
  ABSOLUTE SEGMENTED NEUTROPHIL: 1814.67 CELLS/uL
  BASOPHIL: 0%
  EOSINOPHIL: 1.33%
  ERYTHROCYTE COUNT: 6.42 x10E6/uL
  HEMATOCRIT: 38.03%
  HEMOGLOBIN: 14.03 G/DL
  LEUKOCYTE COUNT: 17.47 x10E3/uL
  MEAN CORPUSCULAR HEMOGLOBIN: 21.87 pg
  MEAN CORPUSCULAR HEMOGLOBIN CONCENTRATION: 36.9 G/DL
  MEAN CORPUSCULAR VOLUME: 59.23 fL
  MONOCYTE: 1%
  NEUTROPHIL: 10.33%
  NUCLEATED RED BLOOD CELLS: 0 /100WBC
  PLATELET COUNT: 1412 x10E3/uL
[5]
  ALBUMIN: 4.23 G/DL
  ALKALINE PHOSPHATASE: 297.67 u/L
  ASPARTATE AMINOTRANSFERASE: 85 u/L
  BLOOD UREA NITROGEN: 26 mg/dL
  CARBON DIOXIDE: 27.33 mmol/L
  CHOLESTEROL: 71 mg/dL
  CREATININE: 0.21 mg/dL
  GLUCOSE: 137 mg/dL
  LACTATE DEHYDROGENASE: 451.33 u/L
  PHOSPHORUS: 11.73 mg/dL
  POTASSIUM: 6.62 MEQ/L
  SODIUM: 144.83 MEQ/L
  TOTAL BILIRUBIN: 0.2 mg/dL
  URIC ACID: 2.03 mg/dL
Dose 0.72 mg/Kg, time 14 day
  ABSOLUTE BASOPHIL: 0 CELLS/uL
  ABSOLUTE EOSINOPHIL: 135.4 CELLS/uL
  ABSOLUTE LYMPHOCYTE: 12908 CELLS/uL
  ABSOLUTE MONOCYTE: 411.8 CELLS/uL
  ABSOLUTE SEGMENTED NEUTROPHIL: 3124.8 CELLS/uL
  BASOPHIL: 0%
  EOSINOPHIL: 0.8%
  ERYTHROCYTE COUNT: 6.73 x10E6/uL
  HEMATOCRIT: 38.96%
  HEMOGLOBIN: 14.36 G/DL
  LEUKOCYTE COUNT: 16.58 x10E3/uL
  MEAN CORPUSCULAR HEMOGLOBIN: 21.34 pg
  MEAN CORPUSCULAR HEMOGLOBIN CONCENTRATION: 36.86 G/DL
  MEAN CORPUSCULAR VOLUME: 57.88 fL
  MONOCYTE: 2.6%
  NEUTROPHIL: 17.8%
  NUCLEATED RED BLOOD CELLS: 0 /100WBC
  PLATELET COUNT: 976.2 x10E3/uL
[6]
  ALBUMIN: 4.22 G/DL
  ALKALINE PHOSPHATASE: 388 u/L
  ASPARTATE AMINOTRANSFERASE: 100.6 u/L
  BLOOD UREA NITROGEN: 31 mg/dL
  CARBON DIOXIDE: 34.2 mmol/L
  CHOLESTEROL: 70.6 mg/dL
  CREATININE: 0.27 mg/dL
  GLUCOSE: 174 mg/dL
  LACTATE DEHYDROGENASE: 122.4 u/L
  PHOSPHORUS: 11.92 mg/dL
  POTASSIUM: 5.67 MEQ/L
  SODIUM: 147.54 MEQ/L
  TOTAL BILIRUBIN: 0.2 mg/dL
  URIC ACID: 2.4 mg/dL
